Legend:
[1] = Maximum tolerated dose of Dox and conjugate in mice, daily i.v. x5; format: in vivo; settings: daily i.v. injection for 5 consecutive days
Protocol: (§1) Polymeric prodrug conjugate, conjugate, 6, a doxorubicin (Dox)-containing construct in which the drug moiety is attached to the PEG backbone via a cathepsin B-cleavable linker peptide was tested in mice bearing murine melanoma B16-F10 implanted s.c. Mice were treated by daily i.v. (tail vein) injection for 5 consecutive days, beginning on the day when tumors became palpable. The conjugate was studied at the maximum tolerated dose (MTD) of the free drug, 2 mg Dox/kg (equimolar comparison), and at the conjugate's MTD, 6 mg Dox/kg (equitoxic comparison). The conjugate, 6, or Dox administered at the free drug's MTD (2 mg/kg) had minimal anti-tumor effect (30% tumor reduction, 3.4 days delay in reaching 500 mg). But at the conjugate's MTD of 6 mg Dox/kg there was substantial activity (FIG. 1A). The conjugate reduced tumor by 81% and extended the time to reach 500 mg to 6.5 days. Therefore as a polymeric prodrug conjugate it was possible to increase the tolerated drug dose by a factor of 3, and this increase permitted the achievement of substantially greater anti-tumor efficacy.

murine melanoma B16-F10 = assay: Anti-tumor efficacy in mice bearing s.c. murine melanoma B16-F10, daily i.v. x5; format: in vivo; settings: 2 mg/kg (free drug's MTD), daily i.v. for 5 days
Protocol: as §1

[2] = Maximum tolerated dose of Pt construct and oxaliplatin; format: in vivo, C57B1/6 mice; settings: mice
Excerpt: Plasmin labile construct, 26, bearing an aspartic acid-platinum-diamino-cyclohexane (DACH) chelate was studied using C57B1/6 mice bearing s.c. B16-F10 murine melanoma (FIG. 1C). […] Thus, a substantially larger dose of Pt was safely delivered by the polymeric prodrug construct.

SMILES: COc1cccc2c1C(=O)c1c(O)c3c(c(O)c1C2=O)C[C@@](O)(C(=O)CO)C[C@@H]3O[C@H]1C[C@H](N)[C@H](O)[C@H](C)O1 [Dox, doxorubicin]
- maximum tolerated dose (MTD) [1]: 2 mg Dox/kg
- delay in reaching 500 mg (murine melanoma B16-F10): 3.4 days
- tumor reduction (murine melanoma B16-F10): 30%

SMILES: O=C1[O][Pt]2([NH][C@@H]3CCCC[C@H]3[NH]2)[O]C1=O [oxaliplatin]
- maximum tolerated dose (MTD) [2]: 10 mg Pt/kg

Source: US20040228831A1, “Polymeric conjugates for tissue activated drug delivery” (priority 2003, published 2004)
